Test results taken from paper PMC9841525, “Chemical Blockage of the Mitochondrial Rhomboid Protease PARL by Novel Ketoamide Inhibitors Reveals Its Role in PINK1/Parkin-Dependent Mitophagy” (Journal of Medicinal Chemistry, 2022).
Entries after “also recorded” stand apart in the source; their conditions may differ. *1 amine or outer side, *2 acyl side, *3 side chain or, on linkers, in order; H or OH if unused. Where a SMILES comes first, the peptide text is derived from it. [ ]: non-standard residue; d: D form. The star is where a group is joined. NH(4-phenylbutyl) = c1ccc(CCCCN*)cc1; X1 = C[C@H](N[*:1])C(=O)C(=O)[*:2]

Legend:
Parkin = Parkin recruitment to mitochondria and mitochondrial morphology, fluorescence microscopy; assay type: cell-based, human; conditions: HEK293 T-REx PINK1 cells, 3 h; 5 μM compound 5, CCCP or Antimycin A, vs DMSO
Procedure: (§1) Inducible stable Flp-In HEK293 T-REx cells expressing PINK1 were described previously.[33] HEK293 T-REx PINK1 and HEK293T cells were grown in DMEM (Gibco) supplemented with 10% (v/v) fetal bovine serum (ThermoFisher), 1% (v/v) GlutaMAX (Gibco), 1% (v/v) sodium pyruvate (Gibco), 125 μg/mL hygromycin (Invitrogen), and 10 μg/mL blasticidin (Gibco) or DMEM supplemented with 10% (v/v) fetal bovine serum, respectively, at 37 °C in 5% (v/v) CO2. For microscopy, cells were seeded on poly-L-lysine (Sigma)-coated slides. Transient plasmid transfections were performed using 25 kDa linear polyethylenimine (Polysciences). Plasmid (100 ng) encoding HA-Parkin-IRES-GFP, mito-mCherry or Parkin-mEGFP, or 500 ng plasmid encoding PGAM5-FLAG were used per 6-well. Total transfected DNA was 2 μg/well. For siRNA transfection, 2 × 10^5 cells were seeded per 6-well and on the next day transfected with 20 nM siRNA-oligonucleotide using lipofectamine RNAiMAX (ThermoFisher). Cells were analyzed 27 h post-transfection or five days post-siRNA-transfection. HEK293 T-REx PINK1 cells were induced with 0.3 μg/mL doxycycline for 24 h before further processing. Hoechst staining (1 μg/mL) was done immediately before adding treatment to the cells. Treatments were administered for the indicated times before processing; CCCP (Sigma) was always used as 10 μM for 3 h and Antimycin A (Sigma) as 30 μM for 3 h.
(§2) For fixation, cells were incubated for 15 min with 4% formaldehyde (16% formaldehyde diluted in PBS, Thermo Scientific) and washed in PBS. The cover glasses were mounted with Fluoromount-G (Southern Biotech) on microscope slides. […] Parkin recruitment events to the mitochondria were counted by hand throughout each z-stack and cell. […] JC-1 images were handled as summed intensity z-stack projections, as well as subjected to flatfield correction and subtraction of background before measuring the fluorescence levels normalized to the number of cell nuclei. The fluorescence intensity ratio between the red and green signal was calculated and compared to DMSO as a ratio of 1. Data were evaluated using Excel and GraphPad Prism 6.

HEK293T cells = assay: JC-1 mitochondrial membrane potential assay; assay type: cell-based, human; conditions: 5 µM compound 5 or CCCP, at least three hours, compared to DMSO
Procedure: Staining of cells for the determination of mitochondrial membrane potential was carried out with the JC-1 mitochondrial staining kit (Sigma-Aldrich) according to the kit’s instructions; stained cells were immediately taken to live cell imaging.
as §2, with “slides. All microscopy was performed on an LSM 780 system (Carl Zeiss) with a Plan-APOCHROMAT 63× 1.4NA oil objective (Carl Zeiss) and pinhole settings of 1 AU with the Zeiss ZEN 2010 software. Image processing and analysis was performed using ImageJ (http://rsb.info.nih.gov/ij/).” for “slides.”

PARL = target: T1, PARL (Homo sapiens, UniProt Q9H300); assay: CCCP-induced PGAM5-FLAG cleavage by endogenous PARL in HEK293T cells, immunoblot; assay type: cell-based; parameters: expressed in transfected cells; host or cells: Flp-In HEK293 T-REx PARL knockout cells; conditions: 3 h, mean ± SEM of four experiments, read-out: Apparent IC50, CCCP-induced PGAM5 cleavage
T1 sequence (Q9H300 53-379): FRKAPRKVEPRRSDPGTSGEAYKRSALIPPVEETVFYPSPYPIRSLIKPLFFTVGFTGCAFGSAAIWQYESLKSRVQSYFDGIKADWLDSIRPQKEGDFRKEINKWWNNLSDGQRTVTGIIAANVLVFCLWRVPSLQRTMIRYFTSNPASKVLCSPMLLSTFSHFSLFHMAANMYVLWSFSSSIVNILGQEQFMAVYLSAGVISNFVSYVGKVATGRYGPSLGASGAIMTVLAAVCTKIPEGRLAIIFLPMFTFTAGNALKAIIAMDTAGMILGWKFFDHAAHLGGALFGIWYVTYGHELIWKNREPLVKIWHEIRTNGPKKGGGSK
Procedure: as §1, with “[…] For quantification, ImageJ” for “Hoechst staining (1 μg/mL)”, “used (http://rsb.info.nih.gov/ij/). Immunoblots shown are representative of at least three independent experiments and” for “done immediately before adding treatment to the cells. Treatments”, “evaluated using Excel” for “administered for the indicated times before processing; CCCP (Sigma) was always used as 10 μM for 3 h”, “GraphPad Prism 9 (GraphPad Software, Inc.).” for “Antimycin A (Sigma) as 30 μM for 3 h.”

SMILES: CC(=O)N[C@@H](C)C(=O)N[C@H](C(=O)N[C@@H](Cc1ccccc1)C(=O)N[C@@H](CC(C)C)C(=O)N[C@@H](C)C(=O)C(=O)NCCCCc1ccccc1)C(C)C [compound 5] (Ac-AVFL[X1]-{NH(4-phenylbutyl)})
- Recruitment of Parkin-mEGFP to mitochondria (microscopy) (Parkin): significant recruitment of mEGFP-tagged Parkin to the mitochondria
- Effect on mitochondrial membrane potential (JC-1 aggregate to monomer ratio) (HEK293T cells): does not depolarize; also recorded: does not significantly alter the membrane potential
- IC50 (PARL): 0.15 µM
